# Reference: patent US20230407296A1, “Method to Regulate ALOX12-AS1 IncRNA-Mediated Alteration of ALOX12 Protein and to Screen for Novel Drugs to Alter ALOX12 Protein Level” (priority 2021, published 2023)
# Tests used:
# Format in all cases: cell-based, human
# [1] = system: ALOX12-AS1-202; experiment: Multiplex RT-PCR of ALOX12-AS1-202 in TPA-treated THP-1 derived MLCs; conditions: TPA treated (72 hours) MLCs vs vehicle treated THP-1 cells
# Protocol: (§1) Phorbol ester (12-O-Tetradecanoylphorbol 13-acetate: TPA) is an activator of protein kinase C (PKC) that has been frequently used for inducing the differentiation of different cell types, including myeloid cells. Activation of human monocytic cells affects ALOX expression. Therefore, we induced differentiation of monocytic THP-1 cells to macrophage-like cells (MLCs) with 100 nM TPA [91, 92] and monitored the ALOX12 protein level as well as nucleo-cytoplasmic translocation of ALOX12-AS1-201. […] We concurrently monitored expression of the integrin subunit a M (ITGAM), also known as CD11b, which regulates myeloid cell polarization and is expressed in macrophages to facilitate adhesion, migration, chemotaxis, and accumulation during inflammation. […]
# (§2) Total RNA from different cell lines was extracted with Trizol reagent (Catalog number: 15596026; ThermoFisher Scientific, Canada) as per the manufacturer's recommended protocol. […] Absolute quantification of ALOX12-AS1 lncRNA isoforms was performed in a Mastercycler®ep realplex real-time PCR system (Eppendorf, Hamburg, Germany) using SYBR green dye (Catalog number: S7563; ThermoFisher Scientific). […] Real-time PCR data quality control calculations were determined by the SAS program as described previously and the calculated PCR efficiency was between 95%-99%. […] Results were expressed as copy number of specific isoforms per 100 ng of total RNA.
# [2] = system: ALOX12 AS1-201; experiment: Multiplex RT-PCR of ALOX12-AS1-201 in TPA-treated THP-1 derived MLCs; conditions: TPA treated (72 hours) MLCs vs vehicle treated THP-1 cells
# Protocol: as §1, §2
# [3] = system: ALOX12 mRNA; experiment: Multiplex RT-PCR of ALOX12 mRNA in TPA-treated THP-1 derived MLCs; conditions: TPA treated (72 hours) MLCs vs vehicle treated THP-1 cells
# Protocol: as §1, §2
# [4] = system: ALOX12-AS1-201 lncRNA; experiment: Nucleo-cytoplasmic translocation of ALOX12-AS1-201 in HEK293 cells (FISH, fractionation, quantitative RT-PCR); conditions: 10 μM TPA, 1 hour
# Protocol: Phorbol ester (12-O-Tetradecanoylphorbol 13-acetate: TPA) is an activator of protein kinase C (PKC) that has been frequently used for inducing differentiation in different cell types including myeloid cells. […] Therefore, we treated HEK293 cells with 10 μM TPA for 1 hour and observed ALOX12-AS1-201 nucleo-cytoplasmic translocation as well as measured ALOX12 protein level.
# Total RNA from different cell lines was extracted with Trizol reagent (Catalog number: 15596026; ThermoFisher Scientific, Canada) as per the manufacturer's recommended protocol. […] Absolute quantification of ALOX12-AS1 lncRNA isoforms was performed in a Mastercycler®ep realplex real-time PCR system (Eppendorf, Hamburg, Germany) using SYBR green dye (Catalog number: S7563; ThermoFisher Scientific). […] Real-time PCR data quality control calculations were determined by the SAS program as described previously and the calculated PCR efficiency was between 95%-99%. Quantitative RT-PCR was conducted for different cell-line derived RNAs, and the specificity of each amplified product was confirmed by melting curve analysis. Results were expressed as copy number of specific isoforms per 100 ng of total RNA.
# For RNA-FISH, cells were grown on coverslips and human tissue cryosections were adhered to glass slides. […] The cells were then fixed and analyzed by RNA-FISH. […]
structure (smiles),measurement,setting,value
"CCCCCCCCCCCCCC(=O)O[C@@H]1[C@@H](C)[C@@]2(O)[C@@H](C=C(CO)C[C@]3(O)C(=O)C(C)=C[C@@H]23)[C@@H]2C(C)(C)[C@]12OC(C)=O [TPA, 12-O-Tetradecanoylphorbol 13-acetate]",ALOX12-AS1-202 level,[1],dramatic reduction
same,ALOX12 AS1-201 level,[2],relatively unaltered
same,ALOX12 mRNA level,[3],relatively unaltered
same,ALOX12-AS1-201 nucleo-cytoplasmic translocation,"[4]; FISH, vs vehicle (DMSO)",dramatic nucleo-cytoplasmic translocation
same,cytosolic ALOX12-AS1-201 lncRNA abundance,[4]; subcellular fractionation and quantitative RT-PCR,significant increase
